This assay has as its target SBA (soybean agglutinin) (Glycine max, UniProt P05046). The experiment in a line: Surface plasmon resonance (SPR) binding to immobilized SBA. The protocol: Assay: surface plasmon resonance (SPR) experiments were performed on the Biacore T200 at 25° C. using a functionalized CM5 sensor chip. Protein immobilization was performed according to the instrument build-in wizard template. The CM5 sensor chip was activated with a solution containing N-ethyl-N′-(3-[…])-carbodiimide (EDC) (0.2 M) and N-hydroxysuccinimide (NHS) (0.05 M). HPA (10 μg/mL) in NaOAc buffer (pH 6) or SBA (10 μg/mL) in NaOAc buffer (pH 4) was injected over the activated flow cell at flow rate of 10 μL/min for 420 s. Then 1 M ethanolamine at pH 8.5 was injected to block the remaining activated groups. Binding assays were performed with HBS-P+(10 mM HEPES, 150 mM NaCI, 0.05% tween 20, pH 7.4) for HPA or 10 mM HEPES, 150 mM NaCl, 0.05% tween 20, and 100 μM CaCl2, 0.05% tween 20, pH 7.5 for SBA as running buffer. Protein modulator for test (COM1, SL4, SL5 and SL6) were injected onto the surface, with several concentrations of ranging from 6.25 nM to 100 nM for protein modulator COM1 and 10 nM to 160 nM for protein modulators SL4, SL5 and SL6 to HPA or from 62.5 nM to 1000 nM for protein modulator COM1 and 100 nM to 1600 nM for protein modulators SL4, SL5 and SL6 to SBA at the rate of 30 μL/min diluted in the running buffer. The surface was regenerated by 30 s injection of 300 mM GlcNAc for HPA or 100 mM methyl β-D-galactopyranoside for LecA. The sensorgrams were reference subtracted, quality controlled and analyzed by Biacore T200 Evaluation Software, and the kinetic parameters were obtained by fitting curves to 1:1 Langmuir model.
A general note: SPR reads the build-up and loss of mass on a sensor chip optically.

The values that follow come from patent US10443026B2, “Polygonal scaffold and manufacturing method thereof, and protein modulator and manufacturing method thereof” (NATIONAL TSING HUA UNIVERSITY, priority 2017, dated 2019).

By Kd is commonly meant the free concentration of one partner at which half of the binding sites on the other are occupied at equilibrium, for simple one-to-one binding.

Structures are written as SMILES. Where two headings read alike, the source gives them in different places. *1 amine or outer side, *2 acyl side, *3 side chain or, on linkers, in order; H or OH if unused. Where a SMILES comes first, the peptide text is derived from it. [ ]: non-standard residue; d: D form. The star is where a group is joined. Pro(trans-4-NH2) = O=C([C@@H]1C[C@@H](N[*:3])CN1[*:1])[*:2]; X2 = CC(=O)NC1C(OCCn2cc(CCC(=O)*)nn2)OC(CO)C(O)C1O; X1 = O=C(CCCn1cc(CN[*:1])nn1)[*:2]

SBA (soybean agglutinin), sequence (P05046 33-285): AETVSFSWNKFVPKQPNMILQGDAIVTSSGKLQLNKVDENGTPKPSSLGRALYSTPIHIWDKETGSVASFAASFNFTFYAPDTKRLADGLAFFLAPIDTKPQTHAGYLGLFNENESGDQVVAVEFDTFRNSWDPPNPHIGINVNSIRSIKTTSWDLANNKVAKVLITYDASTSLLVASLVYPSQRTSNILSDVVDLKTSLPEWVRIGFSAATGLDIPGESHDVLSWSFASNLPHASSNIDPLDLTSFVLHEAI

On to `CC(=O)NC1C(OCCn2cc(CNC(=O)CCOCC(COCCC(=O)NCc3cn(CCOC4OC(CO)C(O)C(O)C4NC(C)=O)nn3)(COCCC(=O)NCc3cn(CCOC4OC(CO)C(O)C(O)C4NC(C)=O)nn3)NC(=O)COCCOCCN)nn2)OC(CO)C(O)C1O` (stereo not shown) [COM1, reference compound], for which the Kd (SPR, Biacore T200, 25° C., SBA immobilized on CM5 chip, HEPES buffer with 100 μM CaCl2 pH 7.5, 1:1 Langmuir model, read-out: KD(nM) SBA) came to 61.2 nM.

Regarding `CC(=O)NC1C(OCCn2cc(CCC(=O)N[C@@H]3C[C@H]4C(=O)N5CCC[C@H]5C(=O)N5CCC[C@H]5C(=O)N5CCC[C@H]5C(=O)N5CCC[C@H]5C(=O)N5CCC[C@H]5C(=O)N5CCC[C@H]5C(=O)N5CCC[C@H]5C(=O)N5CCC[C@H]5C(=O)NCc5cn(nn5)CCCC(=O)N5C[C@H](NC(=O)CCc6cn(CCOC7OC(CO)C(O)C(O)C7NC(C)=O)nn6)C[C@H]5C(=O)N5CCC[C@H]5C(=O)N5CCC[C@H]5C(=O)N5CCC[C@H]5C(=O)N5CCC[C@H]5C(=O)N5CCC[C@H]5C(=O)N5CCC[C@H]5C(=O)N5CCC[C@H]5C(=O)N5CCC[C@H]5C(=O)NCc5cn(nn5)CCCC(=O)N5C[C@H](NC(=O)CCc6cn(CCOC7OC(CO)C(O)C(O)C7NC(C)=O)nn6)C[C@H]5C(=O)N5CCC[C@H]5C(=O)N5CCC[C@H]5C(=O)N5CCC[C@H]5C(=O)N5CCC[C@H]5C(=O)N5CCC[C@H]5C(=O)N5CCC[C@H]5C(=O)N5CCC[C@H]5C(=O)N5CCC[C@H]5C(=O)NCc5cn(nn5)CCCC(=O)N4C3)nn2)OC(CO)C(O)C1O` (stereo partly drawn) [SL4] (cyclo(PPPPPPPP[X1][Pro(trans-4-NH2)](X2)PPPPPPPP[X1][Pro(trans-4-NH2)](X2)PPPPPPPP[X1][Pro(trans-4-NH2)](X2))), the equilibrium dissociation constant (Kd) worked out at 98.1 nM. Still for that read-out and setting: with `CC(=O)NC1C(OCCn2cc(CCC(=O)N[C@@H]3C[C@H]4C(=O)N5CCC[C@H]5C(=O)N5CCC[C@H]5C(=O)N5CCC[C@H]5C(=O)N5CCC[C@H]5C(=O)N5CCC[C@H]5C(=O)N5CCC[C@H]5C(=O)N5CCC[C@H]5C(=O)N5CCC[C@H]5C(=O)NCc5cn(nn5)CCCC(=O)N5CCC[C@H]5C(=O)N5CCC[C@H]5C(=O)N5CCC[C@H]5C(=O)N5CCC[C@H]5C(=O)N5CCC[C@H]5C(=O)N5CCC[C@H]5C(=O)N5CCC[C@H]5C(=O)N5CCC[C@H]5C(=O)N5CCC[C@H]5C(=O)NCc5cn(nn5)CCCC(=O)N5C[C@H](NC(=O)CCc6cn(CCOC7OC(CO)C(O)C(O)C7NC(C)=O)nn6)C[C@H]5C(=O)N5CCC[C@H]5C(=O)N5CCC[C@H]5C(=O)N5CCC[C@H]5C(=O)N5CCC[C@H]5C(=O)N5CCC[C@H]5C(=O)N5C[C@H](NC(=O)CCc6cn(CCOC7OC(CO)C(O)C(O)C7NC(C)=O)nn6)C[C@H]5C(=O)N5CCC[C@H]5C(=O)N5CCC[C@H]5C(=O)NCc5cn(nn5)CCCC(=O)N4C3)nn2)OC(CO)C(O)C1O` (stereo partly drawn) [SL5] (cyclo(PPPPPPPPP[X1][Pro(trans-4-NH2)](X2)PPPPP[Pro(trans-4-NH2)](X2)PP[X1][Pro(trans-4-NH2)](X2)PPPPPPPP[X1])) the figure was 138 nM; with `CC(=O)NC1C(OCCn2cc(CCC(=O)N[C@@H]3C[C@H]4C(=O)N5CCC[C@H]5C(=O)N5CCC[C@H]5C(=O)N5C[C@H](NC(=O)CCc6cn(CCOC7OC(CO)C(O)C(O)C7NC(C)=O)nn6)C[C@H]5C(=O)N5CCC[C@H]5C(=O)N5CCC[C@H]5C(=O)N5C[C@H](NC(=O)CCc6cn(CCOC7OC(CO)C(O)C(O)C7NC(C)=O)nn6)C[C@H]5C(=O)N5CCC[C@H]5C(=O)N5CCC[C@H]5C(=O)NCc5cn(nn5)CCCC(=O)N5CCC[C@H]5C(=O)N5CCC[C@H]5C(=O)N5CCC[C@H]5C(=O)N5CCC[C@H]5C(=O)N5CCC[C@H]5C(=O)N5CCC[C@H]5C(=O)N5CCC[C@H]5C(=O)N5CCC[C@H]5C(=O)N5CCC[C@H]5C(=O)NCc5cn(nn5)CCCC(=O)N5CCC[C@H]5C(=O)N5CCC[C@H]5C(=O)N5CCC[C@H]5C(=O)N5CCC[C@H]5C(=O)N5CCC[C@H]5C(=O)N5CCC[C@H]5C(=O)N5CCC[C@H]5C(=O)N5CCC[C@H]5C(=O)N5CCC[C@H]5C(=O)NCc5cn(nn5)CCCC(=O)N4C3)nn2)OC(CO)C(O)C1O` (stereo partly drawn) [SL6] (cyclo(PPPPPPPPP[X1]PPPPPPPPP[X1][Pro(trans-4-NH2)](X2)PP[Pro(trans-4-NH2)](X2)PP[Pro(trans-4-NH2)](X2)PP[X1])), 255 nM.
